# Measured values taken from PubChem BioAssay (NCI).
#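 Values below derive from 48-hour exposures of cells grown in 96-well plates, with endpoints linearly interpolated between the two concentrations bracketing the appropriate inhibition level. Definition used: TGI = concentration required for complete inhibition of growth.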
# Test system: OVCAR-3 ovarian
# Experiment: NCI anticancer screen, dose series, 48 h
row,SMILES,TGI [µM]
1,COc1cc([C@@H]2c3cc4c(cc3[C@@H](Nc3ccc(Cl)cc3C(=O)c3ccccc3)[C@H]3COC(=O)[C@H]23)OCO4)cc(OC)c1OC,> 100
2,Cc1cc(O)c(/C=N/C(=S)Nc2ccc(S(N)(=O)=O)cc2)c(=O)o1,> 100
3,CCOC(=O)c1nc2ccc(C(F)(F)F)cc2nc1Nc1ccc(OC)cc1,> 100
4,Cn1nnc2c3c(N(CCO)CCO)ccnc3ccc21,> 100
5,COc1ccc(-c2nc(-c3cnccn3)n(C3OC(CO)C(O)C3O)n2)cc1 (stereo unspecified),> 10
6,Cc1ccc(S(=O)(=O)N2CCSCCSCCSCCN(S(=O)(=O)c3ccc(C)cc3)CC2)cc1,> 100
7,CC(=O)[C@H]1[C@H](O)C[C@@]2(C)[C@@H]3CCc4cc(O)c(OC5OC(CO)C(O)C(O)C5O)cc4C3(C)C(=O)C[C@]12C (stereo partly specified),> 100
8,CC(C)(O)c1cc2c(cc1C(C)(C)O)-c1ccccc1-2,> 100
9,CCCc1nc2c(n1CC)C(=O)c1ccccc1C2=O,> 100
10,CC(Oc1ccc(Cl)cc1Cl)C(=O)NN1C(=O)CC(=O)N(c2ccccc2)C1=S (stereo unspecified),> 100
11,O=C(NCCN1CCCCC1)c1cccc(I)c1,> 100
12,COC(=O)[C@@](NC(=O)OCc1ccccc1)([C@H](C)O)C(F)(F)F,> 100
13,CO/C(=N\N=C\c1ccc(Cl)c(Cl)c1)c1ccncc1,> 10
14,CC(=O)/C(=C\I)c1ccccc1,3.23
15,CCOC(=O)c1c[nH]c(C(=O)C=[N+]=[N-])c1C1CCN(CC)C1=S (stereo unspecified),> 100
16,Cc1cc(NS(=O)(=O)c2ccc(N=[N+]([O-])c3ccc(S(=O)(=O)Nc4cc(C)on4)cc3)cc2)no1,> 100
17,COC(=O)C(=O)C(C(=O)C(=O)Nc1ccc(C)cc1C)c1nc2ccc(Cl)cc2[nH]c1=O (stereo unspecified),> 100
18,Cc1ccc(S(=O)(=O)N/N=C2/CCC3(O)CC2(C)CCC2[C@H]3CC2(C)C)cc1 (stereo partly specified),> 100
19,CC1=CCC(C(C)(C)NC(=O)c2ccccc2)C/C1=N/O (stereo unspecified),> 100
20,CCSC1=N/C(=C\c2ccco2)C(=O)N1,> 100
21,COc1ccc(-c2nc(Nc3ccccc3)sc2Cc2sc(Nc3ccccc3)nc2-c2ccc(OC)cc2)cc1,> 100
22,Cc1ccc(S(=O)(=O)N2CCNCCN(S(=O)(=O)c3ccc(C)cc3)CCNCC2)cc1,27.7
23,COc1cc(C2c3cc4c(cc3C(=O)C3CCC(=O)N32)OCO4)cc(OC)c1O (stereo unspecified),> 50
24,Cc1cn(C2CC(N=[N+]=[N-])C(COP(=O)(O)OCC3OC(n4cc(F)c(=O)[nH]c4=O)CC3O)O2)c(=O)[nH]c1=O (stereo unspecified),> 100

# Test system: NCI-H23 lung
# Experiment: NCI anticancer screen, dose series, 48 h
row,SMILES,TGI [µM]
1,C=C1C(=O)O[C@H]2C1C[C@H](O)[C@@]1(C)OC1CC[C@@]1(C)O[C@H]21 (stereo partly specified),39.2
2,O=C(NCCNCCNC(=O)c1cc(-c2ccccc2)nc2ccccc12)c1cc(-c2ccccc2)nc2ccccc12,22.3
3,COc1cc([C@@H]2c3cc4c(cc3[C@@H](Nc3ccc(Cl)cc3C(=O)c3ccccc3)[C@H]3COC(=O)[C@H]23)OCO4)cc(OC)c1OC,> 29.6
4,Cc1cc(O)c(/C=N/C(=S)Nc2ccc(S(N)(=O)=O)cc2)c(=O)o1,> 100
5,CCOC(=O)c1nc2ccc(C(F)(F)F)cc2nc1Nc1ccc(OC)cc1,> 100
6,Cn1nnc2c3c(N(CCO)CCO)ccnc3ccc21,> 100
7,COc1ccc(-c2nc(-c3cnccn3)n(C3OC(CO)C(O)C3O)n2)cc1 (stereo unspecified),> 10
8,Cc1ccc(S(=O)(=O)N2CCSCCSCCSCCN(S(=O)(=O)c3ccc(C)cc3)CC2)cc1,> 100
9,CC(=O)[C@H]1[C@H](O)C[C@@]2(C)[C@@H]3CCc4cc(O)c(OC5OC(CO)C(O)C(O)C5O)cc4C3(C)C(=O)C[C@]12C (stereo partly specified),> 100
10,CCCc1nc2c(n1CC)C(=O)c1ccccc1C2=O,> 100
11,CC(Oc1ccc(Cl)cc1Cl)C(=O)NN1C(=O)CC(=O)N(c2ccccc2)C1=S (stereo unspecified),> 100
12,O=C(NCCN1CCCCC1)c1cccc(I)c1,> 100
13,COC(=O)[C@@](NC(=O)OCc1ccccc1)([C@H](C)O)C(F)(F)F,> 100
14,CO/C(=N\N=C\c1ccc(Cl)c(Cl)c1)c1ccncc1,> 10
15,CC(=O)/C(=C\I)c1ccccc1,4.99
16,CCOC(=O)c1c[nH]c(C(=O)C=[N+]=[N-])c1C1CCN(CC)C1=S (stereo unspecified),> 100
17,Cc1cc(NS(=O)(=O)c2ccc(N=[N+]([O-])c3ccc(S(=O)(=O)Nc4cc(C)on4)cc3)cc2)no1,> 100
18,COC(=O)/C=C(\C)CCC1SC1(C)C (stereo unspecified),> 100
19,COC(=O)C(=O)C(C(=O)C(=O)Nc1ccc(C)cc1C)c1nc2ccc(Cl)cc2[nH]c1=O (stereo unspecified),> 100
20,Cc1ccc(S(=O)(=O)N/N=C2/CCC3(O)CC2(C)CCC2[C@H]3CC2(C)C)cc1 (stereo partly specified),83.5
21,CC1=CCC(C(C)(C)NC(=O)c2ccccc2)C/C1=N/O (stereo unspecified),> 100
22,CCSC1=N/C(=C\c2ccco2)C(=O)N1,> 100
23,COc1ccc(-c2nc(Nc3ccccc3)sc2Cc2sc(Nc3ccccc3)nc2-c2ccc(OC)cc2)cc1,> 100
24,Cc1ccc(S(=O)(=O)N2CCNCCN(S(=O)(=O)c3ccc(C)cc3)CCNCC2)cc1,> 100
25,COc1cc(C2c3cc4c(cc3C(=O)C3CCC(=O)N32)OCO4)cc(OC)c1O (stereo unspecified),> 50
26,Cc1cn(C2CC(N=[N+]=[N-])C(COP(=O)(O)OCC3OC(n4cc(F)c(=O)[nH]c4=O)CC3O)O2)c(=O)[nH]c1=O (stereo unspecified),> 79.7

# Test system: NCI-H226 lung
# Experiment: NCI anticancer screen, dose series, 48 h
row,SMILES,TGI [µM]
1,O=C(NCCNCCNC(=O)c1cc(-c2ccccc2)nc2ccccc12)c1cc(-c2ccccc2)nc2ccccc12,9.16
2,Cc1cc(O)c(/C=N/C(=S)Nc2ccc(S(N)(=O)=O)cc2)c(=O)o1,> 100
3,CCOC(=O)c1nc2ccc(C(F)(F)F)cc2nc1Nc1ccc(OC)cc1,> 100
4,COc1ccc(-c2nc(-c3cnccn3)n(C3OC(CO)C(O)C3O)n2)cc1 (stereo unspecified),> 10
5,Cc1ccc(S(=O)(=O)N2CCSCCSCCSCCN(S(=O)(=O)c3ccc(C)cc3)CC2)cc1,> 100
6,CC(=O)[C@H]1[C@H](O)C[C@@]2(C)[C@@H]3CCc4cc(O)c(OC5OC(CO)C(O)C(O)C5O)cc4C3(C)C(=O)C[C@]12C (stereo partly specified),> 100
7,CC(C)(O)c1cc2c(cc1C(C)(C)O)-c1ccccc1-2,> 100
8,CCCc1nc2c(n1CC)C(=O)c1ccccc1C2=O,> 100
9,CC(Oc1ccc(Cl)cc1Cl)C(=O)NN1C(=O)CC(=O)N(c2ccccc2)C1=S (stereo unspecified),> 100
10,O=C(NCCN1CCCCC1)c1cccc(I)c1,> 100
11,COC(=O)[C@@](NC(=O)OCc1ccccc1)([C@H](C)O)C(F)(F)F,> 100
12,CO/C(=N\N=C\c1ccc(Cl)c(Cl)c1)c1ccncc1,> 10
13,CC(=O)/C(=C\I)c1ccccc1,47.6
14,Cc1cc(NS(=O)(=O)c2ccc(N=[N+]([O-])c3ccc(S(=O)(=O)Nc4cc(C)on4)cc3)cc2)no1,> 100
15,COC(=O)/C=C(\C)CCC1SC1(C)C (stereo unspecified),> 100
16,COC(=O)C(=O)C(C(=O)C(=O)Nc1ccc(C)cc1C)c1nc2ccc(Cl)cc2[nH]c1=O (stereo unspecified),> 100
17,Cc1ccc(S(=O)(=O)N/N=C2/CCC3(O)CC2(C)CCC2[C@H]3CC2(C)C)cc1 (stereo partly specified),70.9
18,CCSC1=N/C(=C\c2ccco2)C(=O)N1,> 100
19,COc1ccc(-c2nc(Nc3ccccc3)sc2Cc2sc(Nc3ccccc3)nc2-c2ccc(OC)cc2)cc1,> 100
20,Cc1ccc(S(=O)(=O)N2CCNCCN(S(=O)(=O)c3ccc(C)cc3)CCNCC2)cc1,44
21,COc1cc(C2c3cc4c(cc3C(=O)C3CCC(=O)N32)OCO4)cc(OC)c1O (stereo unspecified),> 50
22,Cc1cn(C2CC(N=[N+]=[N-])C(COP(=O)(O)OCC3OC(n4cc(F)c(=O)[nH]c4=O)CC3O)O2)c(=O)[nH]c1=O (stereo unspecified),> 100

# Test system: MDA-MB-231 breast
# Experiment: NCI anticancer screen, dose series, 48 h
row,SMILES,TGI [µM]
1,O=C(NCCNCCNC(=O)c1cc(-c2ccccc2)nc2ccccc12)c1cc(-c2ccccc2)nc2ccccc12,7.32
2,COc1cc([C@@H]2c3cc4c(cc3[C@@H](Nc3ccc(Cl)cc3C(=O)c3ccccc3)[C@H]3COC(=O)[C@H]23)OCO4)cc(OC)c1OC,> 100
3,Cc1cc(O)c(/C=N/C(=S)Nc2ccc(S(N)(=O)=O)cc2)c(=O)o1,> 100
4,CCOC(=O)c1nc2ccc(C(F)(F)F)cc2nc1Nc1ccc(OC)cc1,50.6
5,Cn1nnc2c3c(N(CCO)CCO)ccnc3ccc21,> 100
6,Cc1ccc(S(=O)(=O)N2CCSCCSCCSCCN(S(=O)(=O)c3ccc(C)cc3)CC2)cc1,> 100
7,CC(=O)[C@H]1[C@H](O)C[C@@]2(C)[C@@H]3CCc4cc(O)c(OC5OC(CO)C(O)C(O)C5O)cc4C3(C)C(=O)C[C@]12C (stereo partly specified),> 100
8,CC(C)(O)c1cc2c(cc1C(C)(C)O)-c1ccccc1-2,> 100
9,CCCc1nc2c(n1CC)C(=O)c1ccccc1C2=O,> 100
10,CC(Oc1ccc(Cl)cc1Cl)C(=O)NN1C(=O)CC(=O)N(c2ccccc2)C1=S (stereo unspecified),> 100
11,COC(=O)[C@@](NC(=O)OCc1ccccc1)([C@H](C)O)C(F)(F)F,> 100
12,CC(=O)/C(=C\I)c1ccccc1,3.74
13,CCOC(=O)c1c[nH]c(C(=O)C=[N+]=[N-])c1C1CCN(CC)C1=S (stereo unspecified),> 100
14,Cc1cc(NS(=O)(=O)c2ccc(N=[N+]([O-])c3ccc(S(=O)(=O)Nc4cc(C)on4)cc3)cc2)no1,> 100
15,COC(=O)C(=O)C(C(=O)C(=O)Nc1ccc(C)cc1C)c1nc2ccc(Cl)cc2[nH]c1=O (stereo unspecified),> 100
16,CC1=CCC(C(C)(C)NC(=O)c2ccccc2)C/C1=N/O (stereo unspecified),> 100
17,CCSC1=N/C(=C\c2ccco2)C(=O)N1,> 100
18,COc1ccc(-c2nc(Nc3ccccc3)sc2Cc2sc(Nc3ccccc3)nc2-c2ccc(OC)cc2)cc1,> 100
19,Cc1ccc(S(=O)(=O)N2CCNCCN(S(=O)(=O)c3ccc(C)cc3)CCNCC2)cc1,60.4
20,Cc1cn(C2CC(N=[N+]=[N-])C(COP(=O)(O)OCC3OC(n4cc(F)c(=O)[nH]c4=O)CC3O)O2)c(=O)[nH]c1=O (stereo unspecified),> 100

# Test system: SK-OV-3 ovarian
# Experiment: NCI anticancer screen, dose series, 48 h
row,SMILES,TGI [µM]
1,C=C1C(=O)O[C@H]2C1C[C@H](O)[C@@]1(C)OC1CC[C@@]1(C)O[C@H]21 (stereo partly specified),> 100
2,O=C(NCCNCCNC(=O)c1cc(-c2ccccc2)nc2ccccc12)c1cc(-c2ccccc2)nc2ccccc12,17.7
3,COc1cc([C@@H]2c3cc4c(cc3[C@@H](Nc3ccc(Cl)cc3C(=O)c3ccccc3)[C@H]3COC(=O)[C@H]23)OCO4)cc(OC)c1OC,> 100
4,Cc1cc(O)c(/C=N/C(=S)Nc2ccc(S(N)(=O)=O)cc2)c(=O)o1,> 100
5,Cn1nnc2c3c(N(CCO)CCO)ccnc3ccc21,> 100
6,COc1ccc(-c2nc(-c3cnccn3)n(C3OC(CO)C(O)C3O)n2)cc1 (stereo unspecified),> 10
7,Cc1ccc(S(=O)(=O)N2CCSCCSCCSCCN(S(=O)(=O)c3ccc(C)cc3)CC2)cc1,> 100
8,CC(=O)[C@H]1[C@H](O)C[C@@]2(C)[C@@H]3CCc4cc(O)c(OC5OC(CO)C(O)C(O)C5O)cc4C3(C)C(=O)C[C@]12C (stereo partly specified),> 100
9,CCCc1nc2c(n1CC)C(=O)c1ccccc1C2=O,> 100
10,CC(Oc1ccc(Cl)cc1Cl)C(=O)NN1C(=O)CC(=O)N(c2ccccc2)C1=S (stereo unspecified),> 100
11,O=C(NCCN1CCCCC1)c1cccc(I)c1,> 100
12,COC(=O)[C@@](NC(=O)OCc1ccccc1)([C@H](C)O)C(F)(F)F,> 100
13,CO/C(=N\N=C\c1ccc(Cl)c(Cl)c1)c1ccncc1,> 10
14,CC(=O)/C(=C\I)c1ccccc1,26.5
15,CCOC(=O)c1c[nH]c(C(=O)C=[N+]=[N-])c1C1CCN(CC)C1=S (stereo unspecified),> 100
16,Cc1cc(NS(=O)(=O)c2ccc(N=[N+]([O-])c3ccc(S(=O)(=O)Nc4cc(C)on4)cc3)cc2)no1,> 100
17,COC(=O)/C=C(\C)CCC1SC1(C)C (stereo unspecified),> 100
18,COC(=O)C(=O)C(C(=O)C(=O)Nc1ccc(C)cc1C)c1nc2ccc(Cl)cc2[nH]c1=O (stereo unspecified),> 100
19,Cc1ccc(S(=O)(=O)N/N=C2/CCC3(O)CC2(C)CCC2[C@H]3CC2(C)C)cc1 (stereo partly specified),> 100
